Measurements from the CheMixHub viscosity set.

Experiment: xn = mol fraction of the nth substance listed

CCCCN + CCCCCO
viscosity [mPa·s], 101.33 kPa
Conditions | 303.15 K | 313.15 K | 323.15 K
x1 = 0.097 | 2.5 | 2.042 | –
x1 = 0.102 | 2.52 | 1.956 | 1.551
x1 = 0.1887 | 2.182 | 1.761 | –
x1 = 0.2002 | 2.086 | 1.639 | 1.322
x1 = 0.2883 | 1.842 | 1.49 | –
x1 = 0.2994 | 1.72 | 1.381 | 1.122
x1 = 0.388 | 1.53 | 1.264 | –
x1 = 0.4012 | 1.431 | 1.162 | 0.957
x1 = 0.5 | 1.19 | 0.976 | 0.816
x1 = 0.5146 | 1.18 | 0.9969 | –
x1 = 0.6008 | 0.996 | 0.829 | 0.697
x1 = 0.6173 | 0.9476 | 0.8283 | –
x1 = 0.6995 | 0.819 | 0.693 | 0.592
x1 = 0.7066 | 0.7962 | 0.6999 | –
x1 = 0.8002 | 0.68 | 0.583 | 0.505
x1 = 0.8075 | 0.6516 | 0.5757 | –
x1 = 0.8845 | 0.559 | 0.4945 | –
x1 = 0.8997 | 0.574 | 0.498 | 0.435

O=C(O)C(Cl)(Cl)Cl + CCCCCOC(C)=O
323.15 K, 101 kPa
Conditions | viscosity [mPa·s]
x2 = 0.2135 | 3.573
x2 = 0.4325 | 2.146
x2 = 0.6234 | 1.358
x2 = 0.8421 | 0.807

O=[N+]([O-])c1ccc(O)cc1 + CCCCCOC(C)=O
Conditions | viscosity [mPa·s]
298.15 K, 101 kPa, x1 = 0.5 | 1.564

CCCCN + CCCCN(CCCC)CCCC
viscosity [mPa·s], 101 kPa
Conditions | x2 = 0.0993 | x2 = 0.193 | x2 = 0.3946 | x2 = 0.4948 | x2 = 0.5888 | x2 = 0.7738 | x2 = 0.8887
303.15 K | 0.5014 | 0.566 | 0.7175 | 0.7961 | 0.8701 | 1.013 | 1.094
313.15 K | 0.4423 | 0.4968 | 0.6233 | 0.688 | 0.7498 | 0.8682 | 0.9377

CCCC(=O)OCC(COC(=O)CCC)OC(=O)CCC + CCCCO
viscosity [mPa·s], 101.33 kPa
Conditions | x1 = 0.1 | x1 = 0.2 | x1 = 0.3 | x1 = 0.4 | x1 = 0.5 | x1 = 0.6 | x1 = 0.7 | x1 = 0.8 | x1 = 0.9
298 K | 2.61 | 3 | 3.46 | 3.99 | 4.58 | 5.23 | 5.96 | 6.73 | 7.66
303 K | 2.31 | 2.64 | 3.03 | 3.48 | 3.97 | 4.54 | 5.14 | 5.77 | 6.54
308 K | 2.04 | 2.33 | 2.68 | 3.06 | 3.45 | 3.95 | 4.45 | 5.01 | 5.64
313 K | 1.83 | 2.08 | 2.38 | 2.7 | 3.06 | 3.48 | 3.9 | 4.37 | 4.89
